Patent publication US7338956B2, “Acylamino-substituted heteroaromatic compounds and their use as pharmaceuticals” (Sanofi-Aventis Deutschland GmbH, priority 2002, dated 2008)

Tested on: eNOS promoter
Experiment: Determination of activation of eNOS transcription (eNOS promoter firefly luciferase reporter gene assay)
Format: cell-based
Conditions: human endothelial cell line stable transfected with eNOS promoter-luciferase construct; 18 h incubation; EC50 determined graphically; read-out: EC50 values of transcription induction ratio
Description: Activation of eNOS transcription was determined as described in detail in Li et al., “Activation of protein kinase C alpha and/or epsilon enhances transcription of the human endothelial nitric oxide synthase gene”, Mol. Pharmacol. 53 (1998) 630 (the content of which is incorporated herein by reference). Briefly, a 3.5 kB long fragment 5′ of the starting codon of the eNOS gene was cloned, sequenced and cloned in firefly luciferase expression plasmids to monitor activation of the eNOS promoter by reporter gene activity. A human endothelial cell line stable transfected and expressing this promoter-reporter construct was used for compound testing. Cells were incubated for 18 h with compounds.
All compounds were dissolved in sterile dimethyl sulfoxide (DMSO). A final concentration of 0.5% DMSO in complete medium was allowed. Induction of reporter gene expression in these cells was measured using a standard luciferase assay system (Promega, Cat. No E150) according to the manufacturer's instructions. Luciferase induction in cells incubated with compounds were compared to those incubated with solvent alone. The ratio of both activities (transcription induction ratio, TIR) was plotted as a function of compound concentration. […] EC50 values of transcription induction ratios as a function of compound concentration were determined graphically.

SMILES	EC50 [µM]
O=C(Nc1nc2cc(Cl)ccc2s1)c1ccc(F)cc1 [Example 123, N-(5-Chlorobenzothiazol-2-yl)-4-fluorobenzamide]	12
O=C(Nc1nc2cccc(Cl)c2s1)c1ccc(F)cc1 [Example 124, N-(7-Chlorobenzothiazol-2-yl)-4-fluorobenzamide]	< 0.1
